# Reference: patent US9844595B2, “Composition comprising a complex of (+)-catechin and amino acid for the treatment and prevention of cancer” (VALORE, priority 2013, dated 2017)
# Where “and” joins values, the source holds several entries; their conditions need not be identical. Equal entries are not always repeated. Where two headings read alike, the source gives them in different places.
# What was measured:
# [1] = for Δct measured between the IV and PO data, free (+)-catechin / Δct measured between the IV and PO data, total (+)-catechin: PO vs IV; for plasma concentration (cc) of the free monomeric (+)-catechin / plasma concentration (cc) of the total monomeric (+)-catechin: 25 mg/kg (+)-catechin equivalent
# Experimental: The experimental results described below were obtained on the basis of a study carried out in healthy human beings and in healthy Wistar rats weighing approximately 250 grams.
# An acclimation period was observed before beginning the experiments.
# The rats received an administration per os of a volume of 5 ml of a solution of active product.
# With regard to taking the blood samples from the rats and from the human beings, the blood was collected in tubes internally coated with EDTA and was then centrifuged at 3000 rpm (revolutions per minute) at ambient temperature for 45 min, and then for 15 min at a temperature of 4° C. The plasma was then collected and stored at −70° C. before analysis.
# The analytical technique (LC-MS/MS for Liquid Chromatography coupled to tandem Mass Spectrometry) for measuring the active substance in the blood was based on the method described by Mata-Bilbao et al., published in 2007 in the Journal of Agricultural and Food Chemistry, volume 55, page 8857.
# The free (+)-catechin was extracted from the plasma with a solution of phosphoric acid, EDTA and ascorbic acid and was then purified by SPE (solid phase extraction); in particular, it is an Oasis™ HLB extraction which is analyzed by LC-MS/MS. The quantification was carried out according to a standard calibration procedure with (+/−)-catechin-2,3,4-^13C3 as internal standard (SI).
# The procedure is identical with regard to the extraction and the quantification of free quercetin or ECGC in the blood.
# With regard to the extraction and quantification of the total (+)-catechin, the procedure is the same as that applied to the free (+)-catechin, with the exception of the fact that an additional step prior to the purification by SPE is carried out.
# (§1) Each of the mixtures is then solubilized in water.
# Each of the mixtures is solubilized in water.
# [2] = format: in vivo, Wistar rats; settings: IV, rats; for plasma concentration (cc) of the free monomeric (+)-catechin / plasma concentration (cc) of the total monomeric (+)-catechin: 25 mg/kg (+)-catechin equivalent
# Text: as §1
# [3] = tested on: clear cell renal carcinoma; experiment: Treatment of a patient with renal adenocarcinoma; format: in vivo, human; settings: DT+19 months, reconfirmed DT+23 months; one patient, 500 mg per day orally, after nephrectomy, dissections and radiotherapy
# Experimental: In the second patient, a left subclavicular cervical adenopathy was first of all detected on day Do. Next, 2 weeks later, a left renal adenocarcinoma was detected for this patient, which was followed by a nephrectomy of the left kidney 3 days after the detection of the adenocarcinoma in this kidney.
# Thereafter, on day D0+3 months, a left cervical lymph node dissection is performed on the patient. This procedure was followed by a series of 15 radiotherapy sessions.
# Starting from day D0+15 months (that is to say on day DT), the patient was orally administered a tablet of 500 mg of (+)-catechin hydrochlorolysinate per day.
# On day DT+15 months, the appearance of a pathological mediastinal adenopathy (45 cm^3 in volume) was observed and required a mediastinal lymph node dissection followed by a pulmonary examination on day DT+17 months.
# [4] = tested on: gastric mucosa; experiment: Incidence of gastric ulcers and histamine level in the gastric mucosa in Mastomys; format: in vivo
# Experimental: In this example, a sample of n=48 Mastomys are sensitized a first time by intraperitoneal injection of 3 μg of ovalbumin dissolved in 0.2 ml of saline solution containing 1 mg of aluminum hydroxide which brings about anti-immunoglobulin E (IgE) and G (IgG) antibodies. After 7 days, a second injection of 1 mg of ovalbumin in 0.01 ml of saline solution is given in the gastric mucosa at the level of the corpus of the anesthetized animals, which causes an ulcerated lesion at the actual site of the injection.
# The 48 rats are divided up into three groups: one of 24 and two of 12 individuals. The first group of 24 individuals (G1) received a placebo (concentrated NaCl solution at 0.15 M).
# The histamine level is measured for the G1, G2 and G3 groups on the basis of a sample of n=12 individuals.
# [5] = tested on: monoclonal immunoglobulins (IgM); experiment: Treatment of a patient with lymphoplasmocytic lymphoma (Waldenström macroglobulinemia type): IgM assay; format: in vivo, human; settings: one patient
# Experimental: In the first patient a lymphoplasmocytic lymphoma (of Waldenström macroglobulinemia type) was detected during a post-operative blood test on day Do. The diagnosis is based on the electrophoretic detection of a monoclonal peak of immunoglobulins (IgM). This diagnosis was reconfirmed and the peak was assayed during a second analysis using the same detection by electrophoresis.
# These immunoglobulins are found at a high concentration in the blood and in the urine. They therefore constitute real tumor markers. The assaying thereof gives an account of the number of sick cells and the extent of the disease and, consequently, makes it possible to monitor its progression under treatment.
# Successive blood tests gave the following data for the IgM assay (in mg per 100 ml of plasma): […]
# [6] = tested on: collagen of rat skin; experiment: Total incorporation and incorporation into collagen of 3H-proline in the skin; format: in vivo, Wistar rats; settings: for increase in the level of incorporation: 100 mg/kg by gavage, vs control subgroup
# Experimental: To do this, a study was carried out in vivo on a batch of 24 female Wistar rats weighing from 95 to 115 g, divided into two groups C and D, each of 12 rats. For each group, the radioactive 3H-hydroxyproline, the specific activity of which is 13.6 Ci/10-3 mol, was administered to all the animals by intraperitoneal injection of 3H-proline at a dose, relative to the weight of the individuals, of 1 mCi/kg, which represents an activity in terms of radioactive 3H-proline of 100 μCi/individual.
# 6 rats of each group received a treatment based on monomeric (+)-catechin by gavage in a proportion of 100 mg/kg for 5 days before sacrifice. […] The group C received monomeric (+)-catechin hydrochlorolysinate, while the group D received monomeric (+)-catechin ascorbolysinate.
# In table 8, the level of incorporation is measured by the number of disintegrations of the radioactive 3H-hydroxyproline per minute (dpm) per mg of dry weight. The higher this number, the higher the concentration of 3H-hydroxyproline.
# In this comparative example, a group E of 12 Wistar rats weighing from 95 to 115 g, in which radioactive 3H-hydroxyproline, the specific activity of which is 13.6 Ci/10-3 mol, was administered to all the individuals by intraperitoneal injection of 3H-proline at a dose, relative to the weight of the individuals, of 1 mCi/kg, which represents an activity in terms of radioactive 3H-proline of 100 μCi/individual.
# 6 rats of each group received a treatment based on pure monomeric (+)-catechin by gavage in a proportion of 100 mg/kg for 5 days before sacrifice.
# [7] = 25 mg/kg, rats, listed as C:Lys:HCl/1:2:2, 25 mg/kg
# [8] = free (+)-catechin, rats, per os, dose equivalent to 25 mg/kg (+)-catechin, 5 Wistar rats, pulverulent mixture solubilized in water
# [9] = G3, n = 12, 100 mg intraperitoneally
# [10] = oral administration, vs placebo
# [11] = treated, 100 mg/kg by gavage for 5 days, per mg of dry weight
molecule,measurement,setting,value
Cl.Cl.Cl.Cl.Cl.NCCCCC(N)C(=O)O.NCCCCC(N)C(=O)O.NCCCCC(N)C(=O)O.NCCCCC(N)C(=O)O.NCCCCC(N)C(=O)O.Oc1cc(O)c2c(c1)O[C@H](c1ccc(O)c(O)c1)[C@@H](O)C2.Oc1cc(O)c2c(c1)O[C@H](c1ccc(O)c(O)c1)[C@@H](O)C2 [1:2.5:2.5],"ct, value reported on the curve in FIG. 5","[1]; rat, in vivo, 25 mg/kg",105 k ng min/ml
"Cl.Cl.Cl.NCCCCC(N)C(=O)O.NCCCCC(N)C(=O)O.NCCCCC(N)C(=O)O.Oc1cc(O)c2c(c1)O[C@H](c1ccc(O)c(O)c1)[C@@H](O)C2 [1:3:3, reference compound]","ct, calculated value","[1]; rat, in vivo, 25 mg/kg",38 k ng min/ml
Cl.Cl.NCCCCC(N)C(=O)O.NCCCCC(N)C(=O)O.Oc1cc(O)c2c(c1)O[C@H](c1ccc(O)c(O)c1)[C@@H](O)C2 [[C:Lys:HCl/1:2:2]],"Δct measured between the IV and PO data, free (+)-catechin","[1]; 25 mg/kg, rats, 25 mg/kg",88%
same,"Δct measured between the IV and PO data, total (+)-catechin","[1]; 25 mg/kg, rats, 25 mg/kg",73%
same,"Δct measured between the IV and PO data, free (+)-catechin",[1]; [7],+88%
same,"Δct measured between the IV and PO data, total (+)-catechin",[1]; [7],+73%
same,total plasma concentration (ct) of the total monomeric (+)-catechin,"[1]; PO, 25 mg/kg, rats",479 585 ng min/ml
same,plasma concentration (cc) of the free monomeric (+)-catechin,"[1]; PO, T 10 min, rats",428 ng/mL
same,plasma concentration (cc) of the total monomeric (+)-catechin,"[1]; PO, T 10 min, rats",1839 ng/mL
same,plasma concentration (cc) of the free monomeric (+)-catechin,"[1]; PO, T 30 min, rats",1027 ng/mL
same,plasma concentration (cc) of the total monomeric (+)-catechin,"[1]; PO, T 30 min, rats",3780 ng/mL
same,plasma concentration (cc) of the free monomeric (+)-catechin,"[1]; PO, T 60 min, rats",1188 ng/mL
same,plasma concentration (cc) of the total monomeric (+)-catechin,"[1]; PO, T 60 min, rats",3190 ng/mL
same,plasma concentration (cc) of the free monomeric (+)-catechin,"[1]; PO, T 120 min, rats",767 ng/mL
same,plasma concentration (cc) of the total monomeric (+)-catechin,"[1]; PO, T 120 min, rats",1990 ng/mL
same,plasma concentration (cc) of the free monomeric (+)-catechin,"[1]; PO, T 240 min, rats",179 ng/mL
same,plasma concentration (cc) of the total monomeric (+)-catechin,"[1]; PO, T 240 min, rats",475 ng/mL
same,T (max),[1]; [8],1 h
same,c (max),[1]; [8],1200 ng/mL
same,total plasma concentration (ct) of the free monomeric (+)-catechin,[2]; 25 mg/kg,87 970 ng min/ml
same,total plasma concentration (ct) of the total monomeric (+)-catechin,[2]; 25 mg/kg,277 040 ng min/ml
same,plasma concentration (cc) of the free monomeric (+)-catechin,[2]; T 10 min,3340 ng/mL
same,plasma concentration (cc) of the total monomeric (+)-catechin,[2]; T 10 min,8066 ng/mL
same,plasma concentration (cc) of the free monomeric (+)-catechin,[2]; T 30 min,991 ng/mL
same,plasma concentration (cc) of the total monomeric (+)-catechin,[2]; T 30 min,2639 ng/mL
same,plasma concentration (cc) of the free monomeric (+)-catechin,[2]; T 60 min,291 ng/mL
same,plasma concentration (cc) of the total monomeric (+)-catechin,[2]; T 60 min,1191 ng/mL
same,plasma concentration (cc) of the free monomeric (+)-catechin,[2]; T 120 min,0 ng/mL
same,plasma concentration (cc) of the total monomeric (+)-catechin,"[2]; T 120 min, 25 mg/kg",340 ng/mL and 338 ng/mL
same,plasma concentration (cc) of the free monomeric (+)-catechin,[2]; T 240 min,0 ng/mL
same,plasma concentration (cc) of the total monomeric (+)-catechin,[2]; T 240 min,0 ng/mL
"Cl.Cl.NCCCCC(N)C(=O)O.NCCCCC(N)C(=O)O.O=c1c(O)c(-c2ccc(O)c(O)c2)oc2cc(O)cc(O)c12 [[Q:Lys:HCl/1:2:2], reference compound]","Δct^q (difference of ct to QP, related back to QP)","[1]; rat, in vivo, 25 mg/kg",+18%
"O=c1c(O)c(-c2ccc(O)c(O)c2)oc2cc(O)cc(O)c12 [QP, quercetin, reference compound]","Δct^q (difference of ct to QP, related back to QP)","[1]; Wistar, rat, in vivo, 25 mg/kg",0%
monomeric (+)-catechin hydrochlorolysinate [[C:Lys:HCl/1:1:1]],status of the clear cell renal carcinoma (consultation report),[3],complete remission
same,HL (histamine level in the gastric mucosa),"[4]; G2, n = 12, per os twice a day (2×300 mg)",37.91 ± 3.73 10^−6 mg/kg of protein
same,NU (number of animals exhibiting a gastric ulcer),"[4]; G2, n = 12, per os twice a day (2×300 mg), two days before and three days after injection",5
same,HL (histamine level in the gastric mucosa),[4]; [9],34.98 ± 3.52 10^−6 mg/kg of protein
same,NU (number of animals exhibiting a gastric ulcer),[4]; [9],6
same,decrease in the histamine level (HL) in the gastric mucosa,[4]; [10],−18%
same,decrease in the number of animals exhibiting a gastric ulcer (NU),[4]; [10],−72%
same,IgM level in the blood,"[5]; DT + 4 months, tablet of 500 mg per day from day DT (IgM 2931 on DT)",2417 mg/100 ml
same,IgM level in the blood,"[5]; DT + 9 months, tablet of 500 mg per day from day DT",2410 mg/100 ml
same,IgM level in the blood,"[5]; DT + 15 months, tablet of 500 mg per day from day DT",2412 mg/100 ml
same,increase in the level of incorporation,[6],+15%
same,level of incorporation into collagen (IC) of 3H-hydroxyproline in rat skin,[6]; [11],1343 ± 48 dpm/mg
same,level of total incorporation (IT) of 3H-hydroxyproline in rat skin,[6]; [11],6248 ± 124 dpm/mg
"O=C(O[C@@H]1Cc2c(O)cc(O)cc2O[C@@H]1c1cc(O)c(O)c(O)c1)c1cc(O)c(O)c(O)c1 [EGCG, epigallocatechin gallate, reference compound]",plasma levels measured (below the reliable limits of detection),"[1]; EGCG, rats, per os, dose equivalent to 25 mg/kg polyphenol",below 250 ng/ml
"Cl.Cl.Cl.Cl.Cl.NCCCCC(N)C(=O)O.NCCCCC(N)C(=O)O.NCCCCC(N)C(=O)O.NCCCCC(N)C(=O)O.NCCCCC(N)C(=O)O.Oc1cc(O)c2c(c1)O[C@H](c1ccc(O)c(O)c1)[C@@H](O)C2 [1:5:5, reference compound]","ct, calculated value","[1]; rat, in vivo, 25 mg/kg",26 k ng min/ml
monomeric (+)-catechin ascorbolysinate,increase in the level of incorporation,[6],+14%
